“Also recorded” adds a separate entry of the source.

Type in all cases: physicochemical
A short description of data set [1]: Stability experiments, all tested stress conditions (summary). Particulars: strong grinding, pressure of 1 ton, high humidity (up to 100% RH for 30 days), high temperature (up to 100° C.). The source says:
Example 2: Stability Experiments

The nature of data set [2]: Stability to compression (pressure of 1 ton, XRPD). To be noted: Pressure (1 tons), XRPD after 2 minutes. The protocol: (§1) Sample, after being powdered in a mortar and pestle, is applied directly on a silicon plate holder. The X-ray powder diffraction pattern was measured with Philips X'Pert PRO X-ray powder diffractometer, equipped with Cu irradiation source=1.54184 Å (Ångstrom), X'Celerator (2.022° 2θ) detector. Scanning parameters: angle range: 3-40 deg., step size 0.0167, time per step 37 s, continuous scan. The described peak positions were determined using silicon powder as an internal standard.
A sample of Mavacamten Form 7 was subjected to a pressure of 1 ton (Atlas® Autopress hydraulic press, set to 1 ton). XRPD analysis was performed on the sample after 2 minutes.

Data set [3] in a line: Sauna experiments (exposure to solvent vapors, XRPD). The protocol:
as §1
Samples of Mavacamten Form 7 (about 20-30 mg) were exposed for 7 days to vapors of different solvents in a sealed chamber.

The nature of data set [4]: Thermal stability (heating, XRPD). Particulars: Heating 100° C., 30 minutes. The protocol:
as §1
A sample of Mavacamten Form 7 was subjected to heating up to 100° C. for 30 minutes.

Data set [5] is described as follows: Grinding experiments (strong grinding and solvent drop grinding, XRPD). Particulars: for XRPD analysis results: 2 minutes. The protocol: as §1
Samples of Mavacamten Form 7 were subjected to strong grinding, and to solvent drop grinding in isopropanol, ethanol, ethyl acetate, acetone and water. Grinding was carried out on the samples alone, or in the presence of a solvent. In these experiments, about 20 mg of the sample is placed in a mortar and ground with a pestle for 2 minutes. The solvent, when used, as added to the crystalline material before grinding, in a volume of 10 microliters.

The nature of data set [6]: Storage stability at different relative humidities (XRPD analysis). Particulars: high and low relative humidity, ambient temperature. The protocol: as §1
(§2) Samples of Mavacamten Form 7 were subjected to conditions of different relative humidities at ambient temperature; TGA weight loss analysis was performed on the samples after 7 days, XRPD analysis was performed after 30 days.

Data set [7] in a line: TGA weight loss after storage at different relative humidities (hygroscopicity). To be noted: for TGA weight loss after 7 days (up to 190° C.): ambient temperature. Here is the method:
as §2

As for `CC(C)n1c(=O)cc(N[C@@H](C)c2ccccc2)[nH]c1=O` [Mavacamten Form 7, 6-{[(1S)-1-phenylethyl]amino}-3-(propan-2-yl)-1,2,3,4-tetrahydropyrimidine-2,4-dion], the “Stability under tested stress conditions” value in data set [1] was “stable under all tested stress conditions”. Further, the XRPD analysis results in data set [2], in data set [3] (Sauna (RT/7 days) (ethanol)), in data set [3] (Sauna (RT/7 days) (ethyl acetate)), in data set [3] (Sauna (RT/7 days) (isopropanol)), in data set [3] (Sauna (RT/7 days) (water)) and in data set [5] (Solvent-drop grinding (acetone)) was “No polymorphic conversion” throughout. Besides, the XRPD analysis results in data set [5] (Solvent-drop grinding (ethanol)), in data set [5] (Solvent-drop grinding (ethyl-acetate)), in data set [5] (Solvent-drop grinding (isopropanol)), in data set [5] (Solvent-drop grinding (water)) and in data set [5] (Strong grinding) was “No polymorphic conversion” throughout. The “Result (XRPD analysis)” value in data set [4] is “no change in the starting material; also recorded: No polymorphic conversion”. Also, in data set [5] (strong grinding and solvent drop grinding in isopropanol, ethanol, ethyl acetate, acetone and water), the “XRPD analysis after the grinding experiment” value is reported as “no change in the starting material”. Also, the “Stability at relative humidity conditions” value in data set [6] was “stable at high and low relative humidity conditions”. Besides, the Hygroscopicity entry in data set [7] (as confirmed by TGA, different relative humidities) is given as “non-hygroscopic”. Also, the “TGA weight loss after 7 days (up to 190° C.)” value in data set [7] (relative humidity 20%) stood at 0.7%; in data set [7] (relative humidity 40%) it was 0.6%; in data set [7] (relative humidity 60%), 0.8%; in data set [7] (relative humidity 80%) it was 0.5%; in data set [7] (relative humidity 100%), 1%.
